Data as given in patent US9261498B2, “Biomarker for sensitivity to mTOR inhibitor therapy in kidney cancer” (The Regents of the University of California, priority 2005, dated 2016).
Entries after “also recorded” stand apart in the source; their conditions may differ.

System: HIF-1α, HIF-2α, GLUT-1, CA-IX
Assay: Immunoblot of HIF and target proteins in VHL knockdown cells expressing HIF-1α (P564A) / HIF-2α (P405A; P531A) mutants
Format: cell-based, human
Settings: SN12C VHL knockdown cells with HIF mutants lacking 5'TOP, 24 hours
Protocol: FIGS. 4A-4C. Rescue of CCI-779 growth suppression by HIF-1-α and HIF-2-α prolyl hydcroxylase mutants. SN12C-CSCG-VHLshRNA cells stably infected with the prolyl hydroxylation defective cDNA mutants p-Babe-puro-HA-HIF-1α (P564A), HIF-2α (P405A; P531A) or backbone vector were treated with CCI-779 or vehicle and harvested 24 hours later. (a) Lysates were subjected to immunoblotting for HIF-1α, HIF-2α, GLUT-1, CA-IX, p-eIF4G, p-S6 and β-Actin as loading control. (b) SN12C-VHLshRNA, SN12C-VHLshRNA-HIF-1α mutant, SN12C-VHLshRNA-HIF-2α mutant cells (1×10^5) were cultured in 10% serum rich media, in the presence of vehicle, 1 or 10 nM of CCI-779 for 5 days. Cell growth was measured by cell counts (n=3). […]
Cells and xenograft tumors were lysed in ECB lysis buffer (see, e.g. Kondo et al., Cancer Cell 1, 237-46 (2002)) or high-detergent buffer (2% SDS), (see, e.g. Chen et al., Nat Med 10, 33-9 (2004)), respectively, supplemented with complete protease and phosphatase inhibitor cocktails (Calbiochem). […] Bound antibody was detected using enhanced chemiluminescence (ECL, Amersham). For VEGF ELISA quantification, cells were plated in 6 well plates (1×10^5 per well). […] Thirty-six hours later, VEGF ELISA (R&D Systems) was performed according to the manufacturer's instructions, using a Fisher Plate reader. […]

CO[C@H]1C[C@@H]2CC[C@@H](C)[C@@](O)(O2)C(=O)C(=O)N2CCCC[C@H]2C(=O)O[C@H]([C@H](C)C[C@@H]2CC[C@@H](OC(=O)C(C)(CO)CO)[C@H](OC)C2)CC(=O)[C@H](C)/C=C(\C)[C@@H](O)[C@@H](OC)C(=O)[C@H](C)C[C@H](C)/C=C/C=C/C=C/1C [CCI-779]
levels of HIF mutants and downstream targets GLUT-1 and CA-IX: stably expressed in the presence or absence of CCI-779; also recorded: not affected
